Common to all, as to assay type: physicochemical
The nature of series [1]: (I-1) and (1) stability study, assay by HPLC. The following applies: for Stability, in words: free acid versus CHA salt; for Assay (by HPLC), Initial Results: before storage. The method, then:
(§1) Assay and water content of the oily free acid (I-1) were tested following a 6-month period in 25° C./60% RH (relative humidity) and 40° C./75% RH (Table 2a).
Similarly, the corresponding CHA salt (1), which is a powder, was tested for its purity/assay:
It could be stipulated that increased water amount over time in the free acid gives rise to the observed assay which deteriorates as the test progresses.

Series [2] can be described thus: (I-1) and (1) stability study, water content by KF. The note with it: for Water content (by KF) following storage: 6 months; for Water content (by KF), Initial Results: before storage. On the procedure: as §1
Series [3] is described as follows: Stability of Na, CHA and tBuNH2 salts of (I-1), GC/MS assay. The method, then:
Na and tBuNH2 salts of (I-1) were prepared. Stability of the salts was tested and compared to the stability of the CHA salt ((1)).
Table 3 also emphasizes that specific salts of (I-1) provide high purity over time. However, it cannot be said that any possible salt (any possible cation) of (I-1) will give rise to such high stability over time.

Turning to `CC(C)(C)OC(=O)C[C@@H](CCC(F)(F)F)C(=O)O` [(I-1), (2R)-2-(2-tert-Butoxy-2-oxoethyl)-5,5,5-trifluoropentanoic acid, reference compound], the “Assay (by HPLC) following storage” value in series [1] (6 months, 25° C./60% RH) was determined as 92.8 % w/w; in series [1] (6 months, 40° C./75% RH), 84.5 % w/w. For the same compound, in series [1] (listed as free acid compound), the “Stability, in words” value is reported as “unstable”. Moreover, in series [1], the “Assay (by HPLC), Initial Results” value is on record as 93.5 % w/w. The “Water content (by KF) following storage” value in series [2] (25° C./60% RH) worked out at 2.0%; in series [2] (40° C./75% RH), 2.3%. Also, the “Water content (by KF), Initial Results” value in series [2] is reported as 0.8%.
As to `CC(C)(C)OC(=O)C[C@@H](CCC(F)(F)F)C(=O)O` [(1)], the “Assay by HPLC” value was 96.2 % w/w in series [1] (1 month, 2-8° C.); 94.8 % w/w in series [1] (1 month, 25° C./60% RH); 94.3 % w/w in series [1] (1 month, 40° C./75% RH); 95.1 % w/w in series [1] (3 months, 2-8° C.); 94.5 % w/w in series [1] (3 months, 25° C./60% RH); 93.0 % w/w in series [1] (3 months, 40° C./75% RH). In addition, the “Assay by HPLC” value in series [1] (6 months, 2-8° C.) was found to be 94.6 % w/w. The “Assay (by HPLC) following storage” value was 95.1 % w/w in series [1] (6 months, 25° C./60% RH) and 94.4 % w/w in series [1] (6 months, 40° C./75% RH). Besides, the “Stability, in words” value in series [1] is “much more stable”. The “Assay (by HPLC), Initial Results” value in series [1] was found to be 95.0 % w/w. The “Water content (by KF) following storage” value in series [2] (25° C./60% RH) and in series [2] (40° C./75% RH) was 0.3% each time. Besides, in series [2], the “Water content (by KF), Initial Results” value stood at 0.2%. The “Purity (GC/MS assay) At 2-8° C. for 1 week” value in series [3] (2-8° C., 1 week) is reported as 95.8 % w/w. Also, the “Purity (GC/MS assay) At 45° C. for 1 week” value in series [3] (45° C., 1 week) worked out at 98.2 % w/w. Also, the “Stability among salts of (I-1), in words” value in series [3] (Na, CHA and tBuNH2 salts compared) is recorded as “most stable salt”.
